Test results taken from article PMC2586329 (Biochemistry, 2008).
Like-named read-outs stand apart in the source and are kept apart here.

How the values were obtained:
full-length EcDos = settings: pH 8; cited from earlier work
ferrous EcDosH = settings: cited from earlier work
ferric EcDosH = ferric EcDosH (Escherichia coli, UniProt P76129)
EcDosH = settings: cited from earlier work
EcDos = settings: cited from earlier work

Sequence of ferric EcDosH (P76129 1-139): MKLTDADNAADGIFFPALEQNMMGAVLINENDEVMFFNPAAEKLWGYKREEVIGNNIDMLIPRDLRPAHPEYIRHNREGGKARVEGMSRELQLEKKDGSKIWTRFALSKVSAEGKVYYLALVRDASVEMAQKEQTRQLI

For `[C-]#[O+]` [CO], the association rate constant (full-length EcDos) is given as 810 M⁻¹ s⁻¹, the association rate constant (ferrous EcDosH; pH 7) is given as 1100 M⁻¹ s⁻¹ and the association rate constant (ferrous EcDosH; pH 8) is given as 7800 M⁻¹ s⁻¹.
In the case of `OO` [H2O2, hydrogen peroxide], the “effect on the heme at high hydrogen peroxide concentrations” value (ferric EcDosH) is reported as “oxidative degradation of the heme is observed”.
In the case of `O=O` [O2], the association rate constant (full-length EcDos) is listed as 1900 M⁻¹ s⁻¹, the association rate constant (ferrous EcDosH; pH 7) is listed as 2600 M⁻¹ s⁻¹ and the association rate constant (ferrous EcDosH; pH 8) is listed as 31000 M⁻¹ s⁻¹.
In the case of `[N-]=[N+]=[N-]` [azide], the affinity for binding (EcDosH) is listed as “very low affinities” and the affinity for binding (EcDos) is listed as “very low affinities”.
In the case of `F` [fluoride], the affinity for binding (EcDosH) is listed as “very low affinities” and the affinity for binding (EcDos) is listed as “very low affinities”.
In the case of `c1c[nH]cn1` [imidazole], the affinity for binding (EcDosH) is listed as “very low affinities” and the affinity for binding (EcDos) is listed as “very low affinities”.
